What follows are molecules tested against T1, AR-VP16 (Homo sapiens, UniProt P10275) (assay: AR-VP16 DNA Binding Assay, antagonist mode (HepG2 cells, 0.1 nM R1881)).
T1 sequence (P10275 560-920 limits assumed): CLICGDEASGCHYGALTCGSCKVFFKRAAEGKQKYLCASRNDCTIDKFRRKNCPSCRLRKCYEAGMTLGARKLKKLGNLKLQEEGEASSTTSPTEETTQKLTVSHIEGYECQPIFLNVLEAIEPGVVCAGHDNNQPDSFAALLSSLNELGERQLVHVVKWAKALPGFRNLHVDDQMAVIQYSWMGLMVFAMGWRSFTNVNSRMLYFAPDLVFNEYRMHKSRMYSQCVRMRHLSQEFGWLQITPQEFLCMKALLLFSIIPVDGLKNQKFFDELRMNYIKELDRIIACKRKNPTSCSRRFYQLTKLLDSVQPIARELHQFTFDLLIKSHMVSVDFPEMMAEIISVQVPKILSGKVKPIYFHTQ
Type: cell-based
Experimental: Cells were transiently transfected using Lipofectin (Life Technologies) according to the manufacturer's protocol. […] Transfected cells were incubated overnight then treated with ligand. […] For antagonist assays, the compounds were serially diluted and 50 μL of compound with RPMI supplemented with charcoal stripped serum plus methyltrienolone (R1881) were added to the cells. The final R1881 concentration used in the antagonist assays was 0.1 nM. Following 48 hour incubation the medium was removed and the cells were lysed in 40 μL of lysis buffer (25 mM Tris Phosphate, 2 mM CDTA, 10% Glycerol, 0.5% Triton X-100, 2 mM DTT).

| Compound | IC50 [nM] |
| --- | --- |
| N#Cc1ncc(N2C(=O)C3(CCC3)N(c3ccc(OCCc4cnccn4)c(F)c3)C2=S)cc1C(F)(F)F [Compound 176, 5-(5-(3-Fluoro-4-(2-(pyrazin-2-yl)ethoxy)phenyl)-8-oxo-6-thioxo-5,7-diazaspiro[3.4]octan-7-yl)-3-(trifluoromethyl)picolinonitrile] | < 1000 |
| N#Cc1ncc(N2C(=O)C3(CCC3)N(c3ccc(OCCN4CCCCC4)c(F)c3)C2=S)cc1C(F)(F)F [Compound 177, 5-(5-(3-Fluoro-4-(2-(piperidin-1-yl)ethoxy)phenyl)-8-oxo-6-thioxo-5,7-diazaspiro[3.4]octan-7-yl)-3-(trifluoromethyl)picolinonitrile] | < 1000 |
| N#Cc1ncc(N2C(=O)C3(CCC3)N(c3ccc(OCCC4CCCCC4)c(F)c3)C2=S)cc1C(F)(F)F [Compound 179, 5-(5-(4-(2-Cyclohexylethoxy)-3-fluorophenyl)-8-oxo-6-thioxo-5,7-diazaspiro[3.4]octan-7-yl)-3-(trifluoromethyl)picolinonitrile] | < 1000 |
| COCCOc1ccc(N2C(=S)N(c3cnc(C#N)c(C(F)(F)F)c3)C(=O)C23CCC3)c(F)c1 [Compound 181, 5-(5-(2-Fluoro-4-(2-methoxyethoxy)phenyl)-8-oxo-6-thioxo-5,7-diazaspiro[3.4]octan-7-yl)-3-(trifluoromethyl)picolinonitrile] | < 1000 |
| CN1CCN(CCOc2ccc(N3C(=S)N(c4cnc(C#N)c(C(F)(F)F)c4)C(=O)C34CCC4)c(F)c2)CC1 [Compound 182, 5-(5-(2-Fluoro-4-(2-(4-methylpiperazin-1-yl)ethoxy)phenyl)-8-oxo-6-thioxo-5,7-diazaspiro[3.4]octan-7-yl)-3-(trifluoromethyl)picolinonitrile] | < 1000 |
| N#Cc1ncc(N2C(=O)C3(CCC3)N(c3ccc(OCCc4ccccn4)cc3F)C2=S)cc1C(F)(F)F [Compound 183, 5-(5-(2-Fluoro-4-(2-(pyridin-2-yl)ethoxy)phenyl)-8-oxo-6-thioxo-5,7-diazaspiro[3.4]octan-7-yl)-3-(trifluoromethyl)picolinonitrile] | < 1000 |
| N#Cc1ncc(N2C(=O)C3(CCC3)N(c3ccc(OCCCN4CCCC4)c(F)c3)C2=S)cc1C(F)(F)F [Compound 185, 5-(5-(3-Fluoro-4-(3-(pyrrolidin-1-yl)propoxy)phenyl)-8-oxo-6-thioxo-5,7-diazaspiro[3.4]octan-7-yl)-3-(trifluoromethyl)picolinonitrile] | < 1000 |
| CN1CCC(Oc2ccc(N3C(=S)N(c4cnc(C#N)c(C(F)(F)F)c4)C(=O)C34CCC4)cc2F)CC1 [Compound 193, 5-(5-(3-Fluoro-4-((1-methylpiperidin-4-yl)oxy)phenyl)-8-oxo-6-thioxo-5,7-diazaspiro[3.4]octan-7-yl)-3-(trifluoromethyl)picolinonitrile] | < 1000 |
| Cc1cc(N2C(=O)C3(CCC3)N(c3ccc(OC4CCOCC4)cc3)C2=S)cnc1C#N [Compound 194, 3-Methyl-5-(8-oxo-5-(4-((tetrahydro-2H-pyran-4-yl)oxy)phenyl)-6-thioxo-5,7-diazaspiro[3.4]octan-7-yl)picolinonitrile] | < 1000 |
| CN1CCC(Oc2ccc(N3C(=S)N(c4cnc(C#N)c(C(F)(F)F)c4)C(=O)C3(C)C)cc2)CC1 [Compound 196, 5-(4,4-Dimethyl-3-(4-((1-methylpiperidin-4-yl)oxy)phenyl)-5-oxo-2-thioxoimidazolidin-1-yl)-3-(trifluoromethyl)picolinonitrile] | < 1000 |
| Cc1cc(N2C(=O)C3(CCC3)N(c3ccc(OCCN4CCN(CC(F)(F)F)CC4)cc3)C2=S)cnc1C#N [Compound 199, 3-Methyl-5-(8-oxo-6-thioxo-5-(4-(2-(4-(2,2,2-trifluoroethyl)piperazin-1-yl)ethoxy)phenyl)-5,7-diazaspiro[3.4]octan-7-yl)picolinonitrile] | < 1000 |
| CC(=O)N1CCN(CCOc2ccc(N3C(=S)N(c4cnc(C#N)c(C(F)(F)F)c4)C(=O)C34CCC4)cc2F)CC1 [Compound 202, 5-(5-(4-(2-(4-Acetylpiperazin-1-yl)ethoxy)-3-fluorophenyl)-8-oxo-6-thioxo-5,7-diazaspiro[3.4]octan-7-yl)-3-(trifluoromethyl)picolinonitrile] | < 1000 |
| COc1ccc(N2C(=S)N(c3cnc(C#N)c(C(F)(F)F)c3)C(=O)C23CCC3)cc1 [Compound 204, 5-(5-(4-Methoxyphenyl)-8-oxo-6-thioxo-5,7-diazaspiro[3.4]octan-7-yl)-3-(trifluoromethyl)picolinonitrile] | < 1000 |
| N#Cc1ncc(N2C(=O)C3(CCC3)N(c3ccc(Oc4ncccn4)cc3)C2=S)cc1C(F)(F)F [Compound 206, 5-(8-Oxo-5-(4-(pyrimidin-2-yloxy)phenyl)-6-thioxo-5,7-diazaspiro[3.4]octan-7-yl)-3-(trifluoromethyl)picolinonitrile] | < 1000 |
| N#Cc1ncc(N2C(=O)C3(CCC3)N(c3ccc(Oc4ccncn4)cc3)C2=S)cc1C(F)(F)F [Compound 208, 5-(8-Oxo-5-(4-(pyrimidin-4-yloxy)phenyl)-6-thioxo-5,7-diazaspiro[3.4]octan-7-yl)-3-(trifluoromethyl)picolinonitrile] | < 1000 |
| Cc1cc(N2C(=O)C3(CCC3)N(c3ccc(Oc4ccncn4)cc3)C2=S)cnc1C#N [Compound 209, 3-Methyl-5-(8-oxo-5-(4-(pyrimidin-4-yloxy)phenyl)-6-thioxo-5,7-diazaspiro[3.4]octan-7-yl)picolinonitrile] | < 1000 |
| N#Cc1ncc(N2C(=O)C3(CCC3)N(c3ccc(OC4CCN(CCO)CC4)cc3)C2=S)cc1C(F)(F)F [Compound 218, 5-(5-(4-((1-(2-hydroxyethyl)piperidin-4-yl)oxy)phenyl)-8-oxo-6-thioxo-5,7-diazaspiro[3.4]octan-7-yl)-3-(trifluoromethyl)picolinonitrile] | < 1000 |
| CNC(=O)CCCc1ccc(N2C(=S)N(c3cnc(C#N)c(C(F)(F)F)c3)C(=O)C23CCC3)cc1 [Compound 230, 4-(4-(7-(6-Cyano-5-(trifluoromethyl)pyridin-3-yl)-8-oxo-6-thioxo-5,7-diazaspiro[3.4]octan-5-yl)phenyl)-N-methylbutanamide] | < 1000 |
| N#Cc1ncc(N2C(=O)C3(CCC3)N(c3ccc(C(=O)NCc4ccccc4)c(F)c3)C2=S)cc1C(F)(F)F [Compound 235, N-Benzyl-4-(7-(6-cyano-5-(trifluoromethyl)pyridin-3-yl)-8-oxo-6-thioxo-5,7-diazaspiro[3.4]octan-5-yl)-2-fluorobenzamide] | < 1000 |
| COCCNC(=O)c1ccc(N2C(=S)N(c3cnc(C#N)c(C(F)(F)F)c3)C(=O)C23CCC3)cc1F [Compound 248, 4-(7-(6-Cyano-5-(trifluoromethyl)pyridin-3-yl)-8-oxo-6-thioxo-5,7-diazaspiro[3.4]octan-5-yl)-2-fluoro-N-(2-methoxyethyl)benzamide] | > 1000 |
| N#Cc1ncc(N2C(=O)C3(CCC3)N(c3ccc(C(=O)NCCCc4ccccc4)c(F)c3)C2=S)cc1C(F)(F)F [Compound 258, 4-(7-(6-Cyano-5-(trifluoromethyl)pyridin-3-yl)-8-oxo-6-thioxo-5,7-diazaspiro[3.4]octan-5-yl)-2-fluoro-N-(3-phenylpropyl)benzamide] | < 1000 |
| N#Cc1ncc(N2C(=O)C3(CCC3)N(c3ccc(C(=O)NCc4cccs4)c(F)c3)C2=S)cc1C(F)(F)F [Compound 260, 4-(7-(6-Cyano-5-(trifluoromethyl)pyridin-3-yl)-8-oxo-6-thioxo-5,7-diazaspiro[3.4]octan-5-yl)-2-fluoro-N-(thiophen-2-ylmethyl)benzamide] | < 1000 |
